Assay results taken from ChEMBL document CHEMBL1146884, “Effect of lysine at C-terminus of the Dmt-Tic opioid pharmacophore” (J Med Chem, 2006).
Where a SMILES comes first, the peptide text is derived from it. [ ]: non-standard residue; d: D form. The star is where a group is joined. Dmt = Cc1cc(O)cc(C)c1C[C@H](N)C(=O)O; Tic = O=C(O)[C@@H]1Cc2ccccc2CN1; Cbz = O=C(OCc1ccccc1)*; NHBn = c1ccc(CN*)cc1; NHPh = c1ccc(N*)cc1

Assays:
[1] = target: T1, Delta-type opioid receptor (Mus musculus, UniProt P32300); assay: Antagonist activity at delta opioid receptor assessed as inhibition of deltorphin-2-induced contraction of mouse vas deferens
[2] = target: Delta-type opioid receptor (Rattus norvegicus, UniProt P33533); assay: Displacement of [3H]deltorphin2 from delta opioid receptor in Sprague-Dawley rat brain P2 synaptosomal membrane
Mu-type opioid receptor [3] = target: T2, Mu-type opioid receptor (Cavia porcellus, UniProt P97266); assay: Agonist activity at mu opioid receptor assessed as inhibition of electrically-evoked contraction of guinea pig ileum; format: functional, tissue-based
Mu-type opioid receptor [4] = target: Mu-type opioid receptor (Rattus norvegicus, UniProt P33535); assay: Displacement of [3H]DAMGO from mu opioid receptor in Sprague-Dawley rat brain P2 synaptosomal membrane
[5] = target: T1, Delta-type opioid receptor; assay: Agonist activity at delta opioid receptor assessed as inhibition of electrically-evoked contraction of mouse vas deferens; format: functional, tissue-based
[6] = target: Opioid receptors; mu & delta (Rattus norvegicus) (UniProt P33533+P33535); assay: Selectivity for delta opioid receptor over mu opioid receptor in Sprague-Dawley rat brain P2 synaptosomal membrane
Mu-type opioid receptor [7] = target: T2, Mu-type opioid receptor; assay: Antagonist activity at mu opioid receptor assessed as inhibition of endomorphin-2-induced contraction of guinea pig ileum; format: functional, tissue-based; conditions: read-out: pA2 (converted)

Sequence of Mu-type opioid receptor (Rattus norvegicus, UniProt P33535) (P33535 whole entry): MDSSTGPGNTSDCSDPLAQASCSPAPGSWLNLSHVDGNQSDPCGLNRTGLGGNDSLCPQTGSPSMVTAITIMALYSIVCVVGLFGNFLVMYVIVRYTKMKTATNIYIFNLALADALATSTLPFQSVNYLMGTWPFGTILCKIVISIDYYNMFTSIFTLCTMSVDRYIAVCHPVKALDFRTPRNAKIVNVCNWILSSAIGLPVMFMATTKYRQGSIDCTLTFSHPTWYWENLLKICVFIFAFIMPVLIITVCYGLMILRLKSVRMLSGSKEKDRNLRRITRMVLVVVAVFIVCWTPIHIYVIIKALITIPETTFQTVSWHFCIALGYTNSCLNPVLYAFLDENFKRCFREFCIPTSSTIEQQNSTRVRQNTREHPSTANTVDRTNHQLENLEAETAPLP
T2 sequence (P97266 whole entry): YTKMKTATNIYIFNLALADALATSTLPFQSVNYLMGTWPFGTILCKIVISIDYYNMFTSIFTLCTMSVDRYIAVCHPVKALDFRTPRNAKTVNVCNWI
T1 sequence (P32300 whole entry): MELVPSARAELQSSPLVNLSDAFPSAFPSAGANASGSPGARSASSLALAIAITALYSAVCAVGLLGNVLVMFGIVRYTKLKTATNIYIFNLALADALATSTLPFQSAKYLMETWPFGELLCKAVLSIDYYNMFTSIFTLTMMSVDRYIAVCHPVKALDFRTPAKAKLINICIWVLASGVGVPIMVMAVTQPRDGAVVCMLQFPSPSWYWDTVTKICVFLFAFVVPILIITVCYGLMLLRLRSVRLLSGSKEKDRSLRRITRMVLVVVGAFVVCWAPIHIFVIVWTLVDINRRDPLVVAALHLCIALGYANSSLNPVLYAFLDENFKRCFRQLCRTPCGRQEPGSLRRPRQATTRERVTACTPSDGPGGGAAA
Sequence of Delta-type opioid receptor (Rattus norvegicus, UniProt P33533) (P33533 whole entry): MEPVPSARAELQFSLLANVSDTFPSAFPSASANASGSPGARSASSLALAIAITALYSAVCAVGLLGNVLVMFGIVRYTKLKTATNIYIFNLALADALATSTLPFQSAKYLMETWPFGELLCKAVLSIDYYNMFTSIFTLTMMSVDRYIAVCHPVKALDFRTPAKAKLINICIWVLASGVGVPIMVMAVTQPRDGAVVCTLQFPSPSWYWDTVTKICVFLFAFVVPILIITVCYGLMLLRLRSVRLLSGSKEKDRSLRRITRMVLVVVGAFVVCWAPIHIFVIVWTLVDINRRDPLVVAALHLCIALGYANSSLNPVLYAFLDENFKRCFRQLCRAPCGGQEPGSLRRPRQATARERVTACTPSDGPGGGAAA
Sequence of Opioid receptors; mu & delta (Rattus norvegicus) (P33533 whole entry, looked up): as the sequence (P33533 whole entry) above
Sequence of Opioid receptors; mu & delta (Rattus norvegicus) (P33535 whole entry, looked up): as the sequence (P33535 whole entry) above

Compound	Kb [1] [nM]	Ki [2] [nM]	IC50 (Mu-type opioid receptor [3]) [nM]	Ki (Mu-type opioid receptor [4]) [nM]	IC50 [5] [nM]	Ratio Ki [6]	Kb (Mu-type opioid receptor [7]) [nM]
Cc1cc(O)cc(C)c1C[C@H](N)C(=O)N1Cc2ccccc2C[C@H]1C(=O)N[C@@H](CCCCNC(=O)OCc1ccccc1)c1nc2ccccc2[nH]1	> 10000	0.64	375	0.37	9050	–	–
Cc1cc(O)cc(C)c1C[C@H](N)C(=O)N1Cc2ccccc2C[C@H]1C(=O)N[C@H](CCCCNC(=O)OCc1ccccc1)c1nc2ccccc2[nH]1	> 10000	0.4	62.5	0.15	> 10000	–	–
CC(=O)NCCCC[C@H](NC(=O)[C@@H]1Cc2ccccc2CN1C(=O)[C@@H](N)Cc1c(C)cc(O)cc1C)c1nc2ccccc2[nH]1	–	0.18	53.9	0.13	> 10000	–	–
Cc1cc(O)cc(C)c1C[C@H](N)C(=O)N1Cc2ccccc2C[C@H]1C(=O)N[C@@H](CCCCN)c1nc2ccccc2[nH]1	–	0.49	39.7	0.16	> 10000	–	–
Cc1cc(O)cc(C)c1C[C@H](N)C(=O)N1Cc2ccccc2C[C@H]1C(=O)NCC(=O)O (H-[Dmt]-[Tic]-Gly-OH)	1.41	1.38	–	529	–	383	–
CC(=O)NCCCC[C@H](NC(=O)[C@@H]1Cc2ccccc2CN1C(=O)[C@@H](N)Cc1c(C)cc(O)cc1C)C(=O)NCc1ccccc1 (H-[Dmt]-[Tic]-Lys(Ac)-NHBn)	0.0398	0.068	> 10000	5.5	> 10000	81	6.92
CC(=O)NCCCC[C@H](NC(=O)[C@@H]1Cc2ccccc2CN1C(=O)[C@@H](N)Cc1c(C)cc(O)cc1C)C(=O)Nc1ccccc1 (H-[Dmt]-[Tic]-Lys(Ac)-NHPh)	0.001	0.13	1250	0.63	> 10000	5	–
Cc1cc(O)cc(C)c1C[C@H](N)C(=O)N1Cc2ccccc2C[C@H]1C(=O)N[C@@H](CCCCNC(=O)OCc1ccccc1)C(=O)NCc1ccccc1 (H-[Dmt]-[Tic]-Lys(Cbz)-NHBn)	617	0.31	> 10000	4.41	> 10000	14	1510
Cc1cc(O)cc(C)c1C[C@H](N)C(=O)N1Cc2ccccc2C[C@H]1C(=O)N[C@@H](CCCCNC(=O)OCc1ccccc1)C(=O)Nc1ccccc1 (H-[Dmt]-[Tic]-Lys(Cbz)-NHPh)	1700	0.57	438	1.47	> 10000	3	–
Cc1cc(O)cc(C)c1C[C@H](N)C(=O)N1Cc2ccccc2C[C@H]1C(=O)N[C@@H](CCCCN)C(=O)NCc1ccccc1 (H-[Dmt]-[Tic]-Lys-NHBn)	977	0.5	> 10000	4.05	> 10000	8	11
Cc1cc(O)cc(C)c1C[C@H](N)C(=O)N1Cc2ccccc2C[C@H]1C(=O)N[C@@H](CCCCN)C(=O)Nc1ccccc1 (H-[Dmt]-[Tic]-Lys-NHPh)	4170	0.42	1250	0.93	> 10000	2	–
